In the NIST ThermoML archive (doi:10.1016/j.jct.2013.11.003):
± gives the expanded uncertainty stated by the source.

Conditions: Liquid, Transpiration method

COc1ccsc1 [3-methoxythiophene]
Conditions	vapor or sublimation pressure [kPa]
278.1 K	0.089 ± 0.0047
281 K	0.1105 ± 0.0058
283.9 K	0.1366 ± 0.0071
286.8 K	0.1662 ± 0.0087
289.7 K	0.2094 ± 0.011
292.6 K	0.2646 ± 0.014
295.7 K	0.32 ± 0.016
297.6 K	0.3561 ± 0.018
300.6 K	0.4274 ± 0.022
303.6 K	0.5203 ± 0.027
306.6 K	0.6282 ± 0.033
309.6 K	0.7649 ± 0.039
312.6 K	0.9169 ± 0.047
315.7 K	1.078 ± 0.055
318.7 K	1.313 ± 0.067
321.7 K	1.536 ± 0.078
324.7 K	1.765 ± 0.089

COc1cccs1 [2-methoxythiophene]
Conditions	vapor or sublimation pressure [kPa]
278.1 K	0.1302 ± 0.0068
281 K	0.1585 ± 0.0082
283 K	0.1804 ± 0.0095
285.9 K	0.2284 ± 0.012
287.8 K	0.2708 ± 0.014
290.7 K	0.3244 ± 0.017
292.7 K	0.3939 ± 0.02
295.7 K	0.4587 ± 0.024
297.6 K	0.5406 ± 0.028
300.6 K	0.6383 ± 0.033
302.6 K	0.6976 ± 0.036
305.6 K	0.8682 ± 0.045
307.6 K	0.9894 ± 0.051
310.6 K	1.147 ± 0.059
312.6 K	1.336 ± 0.069
312.7 K	1.299 ± 0.067
313.6 K	1.366 ± 0.071
315.6 K	1.559 ± 0.08
318.6 K	1.83 ± 0.094
321.7 K	2.196 ± 0.11
323.7 K	2.471 ± 0.13
